Converted amounts (≈) assume the structure as drawn.
Tests used:
Plasmodium falciparum [1] = experiment: Antimalarial activity against chloroquine sensitive Plasmodium falciparum 3D7 infected in human RBC assessed as parasite growth inhibition incubated for 72 hrs by SYBR Green dye based fluorescence assay; type: functional, organism-based; details: 3D7, Erythrocyte
HepG2 [2] = experiment: Cytotoxicity against human HepG2 cells assessed as cell growth inhibition incubated for 72 hrs by resazurin dye based fluorescence assay; type: functional; details: HepG2, 72 h
Plasmodium falciparum [3] = experiment: Antimalarial activity against Plasmodium falciparum 3D7 assessed as reduction in parasite growth incubated for 72 hrs; type: functional, organism-based; details: 3D7, 72 h
HepG2 [4] = experiment: Cytotoxicity against human HepG2 cells assessed as cell growth inhibition at 10 uM incubated for 48 hrs by CellTiter-Glo assay; type: functional; parameters: scale not given: the % may be the effect or the level left
[5] = Aqueous solubility of compound in PBS buffer at pH 7.4 by HPLC-UV analysis; type: physicochemical
[6] = target: Receptor tyrosine-protein kinase erbB-4 (Homo sapiens) (UniProt Q15303); experiment: Inhibition of human HER4 at 1 uM incubated for 30 mins in presence of [gamma-33P]ATP by kinase selectivity assay
[7] = target: Cyclin-dependent kinase 2 (Homo sapiens) (UniProt P24941); experiment: Inhibition of human CDK2 at 1 uM incubated for 30 mins in presence of [gamma-33P]ATP by kinase selectivity assay
[8] = target: T1, Tyrosine-protein kinase JAK3 (Homo sapiens) (UniProt P52333); experiment: Inhibition of human JAK3 at 1 uM incubated for 30 mins in presence of [gamma-33P]ATP by kinase selectivity assay
T1 sequence (whole entry): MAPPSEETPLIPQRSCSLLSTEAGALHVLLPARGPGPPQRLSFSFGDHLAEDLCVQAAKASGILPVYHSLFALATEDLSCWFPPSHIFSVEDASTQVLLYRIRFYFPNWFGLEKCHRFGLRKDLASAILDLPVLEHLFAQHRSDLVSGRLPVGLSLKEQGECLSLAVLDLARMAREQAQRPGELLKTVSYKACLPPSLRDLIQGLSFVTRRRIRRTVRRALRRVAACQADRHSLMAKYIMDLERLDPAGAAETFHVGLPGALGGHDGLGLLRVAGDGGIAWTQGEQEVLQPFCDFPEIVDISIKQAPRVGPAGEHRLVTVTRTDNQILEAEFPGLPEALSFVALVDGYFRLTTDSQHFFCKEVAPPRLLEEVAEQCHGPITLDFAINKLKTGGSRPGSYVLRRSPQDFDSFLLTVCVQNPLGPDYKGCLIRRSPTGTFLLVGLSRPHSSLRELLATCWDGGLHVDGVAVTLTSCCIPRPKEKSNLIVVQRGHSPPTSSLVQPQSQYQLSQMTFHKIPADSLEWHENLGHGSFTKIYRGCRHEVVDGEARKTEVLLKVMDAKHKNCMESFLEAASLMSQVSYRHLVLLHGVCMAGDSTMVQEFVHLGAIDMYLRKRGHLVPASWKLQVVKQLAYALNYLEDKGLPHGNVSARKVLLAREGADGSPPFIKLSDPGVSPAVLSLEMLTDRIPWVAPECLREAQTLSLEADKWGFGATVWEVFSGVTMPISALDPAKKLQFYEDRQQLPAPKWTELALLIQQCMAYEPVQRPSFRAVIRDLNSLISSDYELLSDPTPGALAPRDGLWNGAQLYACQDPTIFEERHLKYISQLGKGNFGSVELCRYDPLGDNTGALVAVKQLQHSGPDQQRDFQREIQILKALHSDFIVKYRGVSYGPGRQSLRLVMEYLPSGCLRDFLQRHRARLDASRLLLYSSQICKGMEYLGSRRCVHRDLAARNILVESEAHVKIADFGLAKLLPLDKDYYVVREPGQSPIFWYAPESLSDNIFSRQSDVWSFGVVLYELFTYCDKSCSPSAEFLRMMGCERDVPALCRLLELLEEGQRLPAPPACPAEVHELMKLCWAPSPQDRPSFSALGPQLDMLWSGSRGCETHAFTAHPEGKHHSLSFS

[9] = target: Serine/threonine-protein kinase pim-1 (Homo sapiens) (UniProt P11309); experiment: Inhibition of human PIM1 at 1 uM incubated for 30 mins in presence of [gamma-33P]ATP by kinase selectivity assay
Serine/threonine-protein kinase pim-1 (Homo sapiens), sequence (P11309 whole entry, looked up): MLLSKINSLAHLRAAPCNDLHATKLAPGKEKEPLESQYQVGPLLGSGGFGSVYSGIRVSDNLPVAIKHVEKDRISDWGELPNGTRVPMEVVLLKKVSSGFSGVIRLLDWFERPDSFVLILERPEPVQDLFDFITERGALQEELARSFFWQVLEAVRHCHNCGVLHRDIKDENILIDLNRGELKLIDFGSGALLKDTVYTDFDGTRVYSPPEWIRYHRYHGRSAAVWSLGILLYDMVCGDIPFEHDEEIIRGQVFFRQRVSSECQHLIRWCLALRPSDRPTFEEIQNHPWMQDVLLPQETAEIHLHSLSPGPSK

[10] = target: Mitogen-activated protein kinase 8 (Homo sapiens) (UniProt P45983); experiment: Inhibition of human JNK1 at 1 uM incubated for 30 mins in presence of [gamma-33P]ATP by kinase selectivity assay
Mitogen-activated protein kinase 8 (Homo sapiens), sequence (P45983 whole entry): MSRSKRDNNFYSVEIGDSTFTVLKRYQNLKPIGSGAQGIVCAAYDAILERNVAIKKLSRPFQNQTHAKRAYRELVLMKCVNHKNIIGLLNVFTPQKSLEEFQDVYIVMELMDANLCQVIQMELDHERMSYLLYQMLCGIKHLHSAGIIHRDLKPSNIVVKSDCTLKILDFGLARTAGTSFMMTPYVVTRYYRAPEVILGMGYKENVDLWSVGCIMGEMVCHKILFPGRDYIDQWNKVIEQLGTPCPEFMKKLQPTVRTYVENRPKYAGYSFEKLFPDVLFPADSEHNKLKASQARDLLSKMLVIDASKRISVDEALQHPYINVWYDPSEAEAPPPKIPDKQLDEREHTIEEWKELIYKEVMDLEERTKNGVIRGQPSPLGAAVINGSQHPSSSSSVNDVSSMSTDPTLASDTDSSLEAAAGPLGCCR

[11] = Metabolic stability in human liver microsome assessed as intrinsic clearance at 0.5 uM incubated upto 30 mins by UPLC-MS/MS analysis; type: ADME; details: microsomes, 0.5 h
[12] = target: T2, Aurora kinase A (Homo sapiens) (UniProt O14965); experiment: Inhibition of human AURA at 1 uM incubated for 30 mins in presence of [gamma-33P]ATP by kinase selectivity assay
T2 sequence (whole entry): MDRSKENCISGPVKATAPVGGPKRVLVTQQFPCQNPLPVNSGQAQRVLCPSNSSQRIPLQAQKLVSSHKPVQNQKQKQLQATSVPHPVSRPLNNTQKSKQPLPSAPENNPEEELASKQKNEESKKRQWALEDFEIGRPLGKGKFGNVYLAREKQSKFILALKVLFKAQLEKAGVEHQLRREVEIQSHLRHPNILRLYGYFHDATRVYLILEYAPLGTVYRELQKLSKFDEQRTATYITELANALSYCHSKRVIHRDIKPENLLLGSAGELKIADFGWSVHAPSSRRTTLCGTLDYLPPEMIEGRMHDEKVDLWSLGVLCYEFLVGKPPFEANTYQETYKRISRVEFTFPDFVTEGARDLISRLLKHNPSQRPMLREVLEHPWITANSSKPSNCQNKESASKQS

[13] = target: Vascular endothelial growth factor receptor 1 (Homo sapiens) (UniProt P17948); experiment: Inhibition of human VEGFR1 at 1 uM incubated for 30 mins in presence of [gamma-33P]ATP by kinase selectivity assay
Vascular endothelial growth factor receptor 1 (Homo sapiens), sequence (P17948 whole entry): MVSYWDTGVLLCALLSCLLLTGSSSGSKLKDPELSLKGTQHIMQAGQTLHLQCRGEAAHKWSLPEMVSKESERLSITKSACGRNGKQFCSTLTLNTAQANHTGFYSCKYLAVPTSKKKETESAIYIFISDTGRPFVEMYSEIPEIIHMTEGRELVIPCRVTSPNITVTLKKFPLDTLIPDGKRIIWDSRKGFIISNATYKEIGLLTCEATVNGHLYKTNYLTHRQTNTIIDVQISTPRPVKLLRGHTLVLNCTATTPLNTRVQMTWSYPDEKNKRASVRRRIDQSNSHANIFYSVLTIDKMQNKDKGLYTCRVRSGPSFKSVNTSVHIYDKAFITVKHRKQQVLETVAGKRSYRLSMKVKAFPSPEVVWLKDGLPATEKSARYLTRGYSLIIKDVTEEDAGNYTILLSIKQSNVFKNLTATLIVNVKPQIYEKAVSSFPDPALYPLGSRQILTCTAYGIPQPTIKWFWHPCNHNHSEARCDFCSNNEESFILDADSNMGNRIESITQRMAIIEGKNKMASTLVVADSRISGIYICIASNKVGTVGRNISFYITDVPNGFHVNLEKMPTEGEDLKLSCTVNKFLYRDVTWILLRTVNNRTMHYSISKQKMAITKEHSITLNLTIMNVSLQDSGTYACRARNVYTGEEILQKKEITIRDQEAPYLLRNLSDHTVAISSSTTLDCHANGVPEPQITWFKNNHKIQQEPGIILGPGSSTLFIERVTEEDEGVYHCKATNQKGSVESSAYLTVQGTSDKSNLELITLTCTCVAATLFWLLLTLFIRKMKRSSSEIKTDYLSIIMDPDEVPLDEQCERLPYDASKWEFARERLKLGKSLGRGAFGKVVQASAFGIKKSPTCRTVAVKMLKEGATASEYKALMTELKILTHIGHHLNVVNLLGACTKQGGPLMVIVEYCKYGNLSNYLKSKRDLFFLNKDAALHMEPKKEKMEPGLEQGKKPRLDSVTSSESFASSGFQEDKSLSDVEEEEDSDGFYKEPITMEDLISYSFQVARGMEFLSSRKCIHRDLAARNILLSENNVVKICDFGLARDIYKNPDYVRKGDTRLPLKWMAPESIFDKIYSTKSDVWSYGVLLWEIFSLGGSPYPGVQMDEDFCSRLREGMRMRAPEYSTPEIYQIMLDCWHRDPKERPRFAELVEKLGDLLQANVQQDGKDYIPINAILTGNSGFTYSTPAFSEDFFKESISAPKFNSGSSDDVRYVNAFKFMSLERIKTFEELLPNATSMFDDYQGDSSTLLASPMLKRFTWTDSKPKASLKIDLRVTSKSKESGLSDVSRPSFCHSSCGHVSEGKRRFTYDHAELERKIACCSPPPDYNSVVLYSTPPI

[14] = target: T3, Mitogen-activated protein kinase kinase kinase 7 (Homo sapiens) (UniProt O43318); experiment: Inhibition of human TAK1 at 1 uM incubated for 30 mins in presence of [gamma-33P]ATP by kinase selectivity assay
T3 sequence (whole entry): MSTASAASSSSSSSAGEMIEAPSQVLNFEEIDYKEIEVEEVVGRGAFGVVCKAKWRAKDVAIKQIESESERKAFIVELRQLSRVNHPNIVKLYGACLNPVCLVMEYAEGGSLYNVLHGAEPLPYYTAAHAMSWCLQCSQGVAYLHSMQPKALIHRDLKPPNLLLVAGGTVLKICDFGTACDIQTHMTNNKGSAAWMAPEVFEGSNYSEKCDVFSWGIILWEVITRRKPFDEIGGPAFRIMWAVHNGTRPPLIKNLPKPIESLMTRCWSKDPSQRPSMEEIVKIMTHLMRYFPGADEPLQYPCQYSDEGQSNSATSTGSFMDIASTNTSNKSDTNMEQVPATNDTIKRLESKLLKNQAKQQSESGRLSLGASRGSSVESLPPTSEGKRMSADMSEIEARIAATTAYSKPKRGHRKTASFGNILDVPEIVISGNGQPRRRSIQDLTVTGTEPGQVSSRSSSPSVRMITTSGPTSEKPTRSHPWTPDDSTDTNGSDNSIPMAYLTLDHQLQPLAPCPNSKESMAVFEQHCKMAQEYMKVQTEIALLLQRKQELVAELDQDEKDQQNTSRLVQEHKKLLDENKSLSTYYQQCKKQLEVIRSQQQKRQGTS

[15] = target: Mitogen-activated protein kinase 3 (Homo sapiens) (UniProt P27361); experiment: Inhibition of human ERK1 at 1 uM incubated for 30 mins in presence of [gamma-33P]ATP by kinase selectivity assay
Mitogen-activated protein kinase 3 (Homo sapiens), sequence (P27361 whole entry): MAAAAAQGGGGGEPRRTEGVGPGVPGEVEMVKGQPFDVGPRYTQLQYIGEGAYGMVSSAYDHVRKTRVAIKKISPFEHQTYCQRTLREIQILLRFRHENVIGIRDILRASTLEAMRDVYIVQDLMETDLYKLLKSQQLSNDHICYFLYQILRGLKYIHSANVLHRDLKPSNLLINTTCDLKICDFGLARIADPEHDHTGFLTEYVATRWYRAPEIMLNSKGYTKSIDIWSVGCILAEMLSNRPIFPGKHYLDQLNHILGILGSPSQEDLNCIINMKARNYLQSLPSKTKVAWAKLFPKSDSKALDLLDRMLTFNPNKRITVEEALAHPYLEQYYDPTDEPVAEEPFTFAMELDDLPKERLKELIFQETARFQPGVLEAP

[16] = Partition coefficient, logD of compound in octanol and phosphate buffer at pH 7.4 incubated for 6 hrs under shaking condition by HPLC-UV analysis; type: physicochemical
[17] = Metabolic stability in CD1 mouse liver microsome assessed as intrinsic clearance at 0.5 uM incubated upto 30 mins by UPLC-MS/MS analysis; type: ADME; details: microsomes, 0.5 h
[18] = target: Mitogen-activated protein kinase kinase kinase 1 (Homo sapiens) (UniProt Q13233); experiment: Inhibition of human MEKK1 at 1 uM incubated for 30 mins in presence of [gamma-33P]ATP by kinase selectivity assay
Mitogen-activated protein kinase kinase kinase 1 (Homo sapiens), sequence (Q13233 whole entry): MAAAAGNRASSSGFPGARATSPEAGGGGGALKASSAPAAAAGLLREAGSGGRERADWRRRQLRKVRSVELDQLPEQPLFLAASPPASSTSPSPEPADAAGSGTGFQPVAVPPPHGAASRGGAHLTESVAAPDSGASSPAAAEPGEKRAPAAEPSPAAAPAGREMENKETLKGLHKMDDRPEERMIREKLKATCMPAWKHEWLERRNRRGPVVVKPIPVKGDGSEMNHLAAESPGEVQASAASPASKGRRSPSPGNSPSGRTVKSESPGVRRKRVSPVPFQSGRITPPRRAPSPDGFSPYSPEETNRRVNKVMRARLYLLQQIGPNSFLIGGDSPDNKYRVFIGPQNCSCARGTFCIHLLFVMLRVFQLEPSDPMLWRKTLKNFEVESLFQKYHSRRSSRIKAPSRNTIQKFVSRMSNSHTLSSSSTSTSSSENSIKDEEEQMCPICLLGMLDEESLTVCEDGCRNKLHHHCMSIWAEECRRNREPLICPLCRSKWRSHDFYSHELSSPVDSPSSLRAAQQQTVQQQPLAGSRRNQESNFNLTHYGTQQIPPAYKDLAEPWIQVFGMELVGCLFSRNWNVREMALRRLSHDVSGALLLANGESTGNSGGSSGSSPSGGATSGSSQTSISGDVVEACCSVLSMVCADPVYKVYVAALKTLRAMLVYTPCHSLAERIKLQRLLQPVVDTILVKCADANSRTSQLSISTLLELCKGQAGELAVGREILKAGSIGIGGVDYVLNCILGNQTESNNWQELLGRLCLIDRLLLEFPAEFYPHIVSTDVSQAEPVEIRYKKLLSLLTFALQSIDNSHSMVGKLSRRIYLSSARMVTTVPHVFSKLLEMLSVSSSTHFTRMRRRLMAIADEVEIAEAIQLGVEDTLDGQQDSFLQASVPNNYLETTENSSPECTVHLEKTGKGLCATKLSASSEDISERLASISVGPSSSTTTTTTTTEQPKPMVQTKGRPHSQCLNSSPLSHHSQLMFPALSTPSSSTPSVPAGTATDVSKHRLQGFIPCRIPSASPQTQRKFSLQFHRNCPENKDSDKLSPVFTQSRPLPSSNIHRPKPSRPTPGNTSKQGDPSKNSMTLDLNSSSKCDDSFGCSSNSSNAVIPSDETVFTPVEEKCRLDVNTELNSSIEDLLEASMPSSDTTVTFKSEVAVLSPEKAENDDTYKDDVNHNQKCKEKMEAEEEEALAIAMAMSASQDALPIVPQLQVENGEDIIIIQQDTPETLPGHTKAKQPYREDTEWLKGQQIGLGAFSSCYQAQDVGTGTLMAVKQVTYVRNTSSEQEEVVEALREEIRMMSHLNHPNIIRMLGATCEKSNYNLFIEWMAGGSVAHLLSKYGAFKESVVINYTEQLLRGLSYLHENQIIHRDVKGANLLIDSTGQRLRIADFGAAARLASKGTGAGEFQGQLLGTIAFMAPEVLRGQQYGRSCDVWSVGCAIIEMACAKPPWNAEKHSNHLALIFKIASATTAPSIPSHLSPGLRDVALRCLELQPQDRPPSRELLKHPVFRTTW

[19] = Effective permeability in PBS at pH 7.4 incubated for 5 hrs by PAMPA based UPLC-MS/MS analysis; type: ADME

Row | SMILES | IC50 (Plasmodium falciparum [1]) [nM] | IC50 (HepG2 [2]) [µM] | also measured
1 | Cc1c2ccc(Nc3ccnc(Nc4cccc(NC(=O)Nc5ccccc5)c4)n3)cc2nn1C | 170 | 2.4 | –
2 | O=C(Nc1ccccc1)Nc1cccc(Nc2ncc([N+](=O)[O-])c(Nc3ccc4cn[nH]c4c3)n2)c1 | 6400 | > 25 | –
3 | O=C(Nc1ccc(F)cc1)Nc1ccc(Nc2nccc(Nc3ccc4cn[nH]c4c3)n2)cc1 | 790 | 3.5 | –
4 | c1cc(Nc2ccc3cn[nH]c3c2)nc(Nc2ccc(OCCN3CCOCC3)cc2)n1 | 2100 | 15 | –
5 | CN1CCN(c2ccc(Nc3ncc(C#N)c(Nc4ccccc4C(N)=O)n3)cc2)CC1 | – | – | EC50 (Plasmodium falciparum [3]): 40 nM; Activity (HepG2 [4]): 43%
6 | c1cc(Nc2ccc3cn[nH]c3c2)nc(Nc2ccc(Cn3cncn3)cc2)n1 | 7200 | 18 | –
7 | O=C(Nc1ccccc1)Nc1cccc(Nc2nccc(Nc3ccc4cn[nH]c4c3)n2)c1 | 470 | 8.2 | –
8 | O=C(Nc1ccc(F)cc1)Nc1cccc(Nc2nccc(Nc3ccc4cn[nH]c4c3)n2)c1 | 400 | 12 | –
9 | c1cc(Nc2ccc3nc[nH]c3c2)nc(Nc2ccc(OCCN3CCOCC3)cc2)n1 | 1200 | > 25 | –
10 | Cc1ccc(Nc2nccc(Nc3ccc4cn[nH]c4c3)n2)cc1NC(=O)Nc1ccccc1 | 1000 | 8.9 | –
11 | O=C(Nc1ccccc1)Nc1cccc(Nc2nccc(Nc3ccc4[nH]ncc4c3)n2)c1 | 330 | 8.1 | –
12 | Cc1cccc(NC(=O)Nc2cccc(Nc3nccc(Nc4ccc5cn[nH]c5c4)n3)c2)c1 | 320 | 2.8 | –
13 | Cn1cc2ccc(Nc3ccnc(Nc4cccc(NC(=O)Nc5ccccc5)c4)n3)cc2n1 | 220 | 12 | solubility [5]: 0.11 µg/mL (≈ 0.244 µM); inhibition [6]: 67.7%; inhibition [7]: 78.7%; inhibition [8]: 51.4%; inhibition [9]: 102%; inhibition [10]: 68.8%; CLH [11]: 9.1 mL/min/g; inhibition [12]: 22%; inhibition [13]: 4.1%; inhibition [14]: 35.8%; inhibition [15]: 65.6%; logD at 6 h [16]: ≥ 4; CLH [17]: > 50 mL/min/g; inhibition [18]: 52.4%
14 | O=C1NC(Cc2ccc(Nc3nccc(Nc4ccc5cn[nH]c5c4)n3)cc2)CO1 (stereo not given) | 7100 | 20 | –
15 | COc1ccc(NC(=O)Nc2ccccc2)cc1Nc1nccc(Nc2ccc3cn[nH]c3c2)n1 | 1500 | 6.5 | –
16 | CN1CCN(S(=O)(=O)c2ccc(Nc3nccc(Nc4ccc5nc[nH]c5c4)n3)cc2)CC1 | 1200 | > 25 | –
17 | O=C(Nc1ccccc1)Nc1cccc(Nc2nccc(Nc3ccc4[nH]ccc4c3)n2)c1 | 93 | 5 | solubility [5]: 0.33 µg/mL (≈ 0.758 µM); inhibition [6]: 32.2%; inhibition [7]: 71.4%; inhibition [8]: 56.7%; inhibition [9]: 99.6%; inhibition [10]: 68%; CLH [11]: 5 mL/min/g; inhibition [12]: 21.7%; inhibition [13]: 1.8%; inhibition [14]: 26.6%; inhibition [15]: 84%; logD at 6 h [16]: ≥ 4; CLH [17]: 8.8 mL/min/g; inhibition [18]: 45.9%
18 | O=C(Nc1ccccc1)Nc1cccc(Nc2nccc(Nc3ccc4cc[nH]c4c3)n2)c1 | 90 | 3.2 | solubility [5]: 0.44 µg/mL (≈ 1.01 µM); inhibition [6]: 42.3%; inhibition [7]: 78.8%; inhibition [8]: 57.7%; inhibition [9]: 80.2%; inhibition [10]: 59.6%; CLH [11]: 2.6 mL/min/g; Papp at 5 h [19]: 10 ×10⁻⁶ cm/s; inhibition [12]: 16.5%; inhibition [13]: 2.4%; inhibition [14]: 17.1%; inhibition [15]: 75.6%; logD at 6 h [16]: ≥ 4; CLH [17]: 3.8 mL/min/g; inhibition [18]: 40.7%
19 | O[C@@H](c1cc(C(F)(F)F)nc2c(C(F)(F)F)cccc12)[C@H]1CCCCN1 [(S,R)-MEFLOQUINE] | – | 11.5 | –
20 | O=C(Nc1ccccc1)Nc1cc(Nc2nccc(Nc3ccc4cn[nH]c4c3)n2)ccc1O | 1400 | 25 | –
21 | Cc1ccc(NC(=O)Nc2cccc(Nc3nccc(Nc4ccc5cn[nH]c5c4)n3)c2)cc1 | 720 | 11 | –
22 | O=C(Nc1ccc(Nc2nccc(Nc3ccc4cn[nH]c4c3)n2)cc1)Nc1cccc(F)c1 | 1000 | 6.6 | –
23 | O=C(Nc1ccccc1)Nc1ccc(Nc2nccc(Nc3ccc4cn[nH]c4c3)n2)cc1 | 920 | 11 | –
24 | CC(=O)c1ccc(NC(=O)Nc2ccc(N(C)c3ccnc(Nc4cccc(CS(C)(=O)=O)c4)n3)cc2)cc1 | – | – | EC50 (Plasmodium falciparum [3]): 120 nM; Activity (HepG2 [4]): 86%
25 | O=S(=O)(c1ccc(Nc2nccc(Nc3ccc4nc[nH]c4c3)n2)cc1)N1CCOCC1 | 7100 | > 25 | –
26 | Nc1cnc(Nc2cccc(NC(=O)Nc3ccccc3)c2)nc1Nc1ccc2cn[nH]c2c1 | 2900 | > 25 | –
27 | Cc1cnc(Nc2cccc(NC(=O)Nc3ccccc3)c2)nc1Nc1ccc2cn[nH]c2c1 | 150 | 3.6 | –
28 | O=C(Nc1ccccc1)Nc1cccc(Nc2ncc(Cl)c(Nc3ccc4cn[nH]c4c3)n2)c1 | 2500 | 3.5 | –
29 | O=C(Nc1ccccc1)Nc1cccc(Nc2nccc(Nc3ccc4nc[nH]c4c3)n2)c1 | 540 | 11 | –

Source: ChEMBL document CHEMBL5104230, “Preparation, biological evaluation and QSAR analysis of urea substituted 2,4-diamino-pyrimidine anti-malarials” (RSC Med Chem, 2022)
